Literature values as cited in patent US10736894B2, “Methods of treating developmental syndromes with PDE10A inhibitors” (Ovid Therapeutics Inc., priority 2018, dated 2020).

Assays:
[1] = 100 mg dose
[2] = single dose 3-1000 mg, volunteers

SMILES: COc1cn(-c2ccc(-n3cccn3)cc2F)nc(-c2ccnn2-c2ccccc2)c1=O [1-[2-fluoro-4-(1H-pyrazol-1-yl)phenyl]-5-methoxy-3-(1-phenyl-1H-pyrazol-5-yl)-pyridazin-4(1H)-one]
- oral bioavailability ([1]; fed conditions versus fasting): increased oral bioavailability
- Tmax ([1]; fed conditions): 6 h
- deaths, serious adverse events, discontinuations due to adverse events (all dose cohorts 3-1000 mg): no deaths, serious adverse events, or discontinuations due to adverse events
- drug-related adverse event: orthostatic hypotension [2]: 9.1%
- drug-related adverse event: orthostatic tachycardia [2]: 19.7%
- drug-related adverse event: somnolence [2]: 33.3%
